Drawing on patent US11795177B2, “Substituted quinoline analogs as aldehyde dehydrogenase 1A1 (ALDH1A1) inhibitors” (THE UNITED STATES OF AMERICA, AS REPRESENTED BY THE …, priority 2017, dated 2023), this text covers IC50 for 24 compounds.

Counter-ions that a name gives are not always drawn. Bounds are passed on as bounds.

The subject of assay [1] is MIA PaCa-2 cells. The experiment in a line: MIA PaCa2 cell-based assay (1,536-well high-content imaging ALDEFLUOR assay). To be noted: Homo sapiens, 0.5 h, ALDEFLUOR BAAA substrate 500 nM, 30 minutes. The arrangement: species or system human. In short, it runs like this: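 MIA PaCa-2 cells (1,000/well), plated overnight, given BAAA substrate (500 nM) plus Hoechst 33342 (0.5 nM), then compound (16-point, 1.4 nM–47.8 μM final; 0.5% DMSO). After 30 min at 37° C, ALDH activity imaged by high-content microscopy as BAA-retaining (FITC) cells versus Hoechst-stained nuclei.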

Assay [2] addresses T1, ALDH1A1 enzyme (Homo sapiens, UniProt P00352).
T1 sequence (P00352 1-501): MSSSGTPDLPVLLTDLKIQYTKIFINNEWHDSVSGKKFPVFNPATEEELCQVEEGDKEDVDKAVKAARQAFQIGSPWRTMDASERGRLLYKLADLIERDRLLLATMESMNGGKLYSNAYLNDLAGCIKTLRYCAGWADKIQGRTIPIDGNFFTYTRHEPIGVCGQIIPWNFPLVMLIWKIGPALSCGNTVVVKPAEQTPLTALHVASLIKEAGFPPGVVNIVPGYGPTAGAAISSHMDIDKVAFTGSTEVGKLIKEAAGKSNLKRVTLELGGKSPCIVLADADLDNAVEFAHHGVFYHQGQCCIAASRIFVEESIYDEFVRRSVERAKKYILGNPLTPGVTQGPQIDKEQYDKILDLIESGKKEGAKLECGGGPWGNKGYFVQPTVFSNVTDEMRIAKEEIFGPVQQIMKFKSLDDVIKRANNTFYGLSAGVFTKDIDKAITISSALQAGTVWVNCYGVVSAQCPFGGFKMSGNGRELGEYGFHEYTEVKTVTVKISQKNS
The experiment in a line: ALDH1A1 enzymatic assay (in vitro). To be noted: ALDH1A1 enzyme 20 nM, NAD+ 1 mM, propionaldehyde 80 μM; read-out: ALDH1A1 IC50. It counts as biochemical. In short, it runs like this: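 ALDH1A1 (20 nM final) in 100 mM HEPES pH 7.5, 0.01% Tween 20 was preincubated 15 min at RT with compound (968 pM–57.2 μM final), then started with 1 mM NAD+ and 80 μM propionaldehyde. NADH fluorescence (ex 340/em 450 nm) followed kinetically for 10 min; change normalized to no-inhibitor and no-enzyme controls for percent inhibition and curve fitting.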

For `CC(C)(O)C1(c2ccccc2)CCN(c2c(C(=O)N3CCN(S(C)(=O)=O)CC3)cnc3ccc(F)cc23)CC1` [Example 258, (6-fluoro-4-(4-(2-hydroxypropan-2-yl)-4-phenylpiperidin-1-yl)quinolin-3-yl)(4-(methylsulfonyl)piperazin-1-yl)methanone], the IC50 in assay [1] was 1000 to 10000 nM; in assay [2], 500 to 1000 nM.
For `N#CC1(c2ccccc2F)CCN(c2c(C(=O)N3CCN(C(=O)C4CC4)CC3)cnc3ccc(F)cc23)CC1` [Example 276, 1-(3-(4-(cyclopropanecareonyl)piperazine-1-carbonyl)-6-fluoroquinolin-4-yl)-4-(2-fluorophenyl)piperidine-4-carbonitrile], the IC50 in assay [1] and in assay [2] was under 500 nM each time.
With `COc1ccc2ncc(C(=O)N3CCN(c4cccnc4)CC3)c(N3CCC4(CC3)OCCO4)c2c1` [Example 14, (6-methoxy-4-(1,4-dioxa-8-azaspiro[4.5]decan-8-yl)quinolin-3-yl)(4-(pyridin-3-yl)piperazin-1-yl)methanone, TFA], the results for the IC50 in assay [1] and in assay [2] were over 10000 nM and under 500 nM, respectively.
Regarding `O=C(C1CC1)C1CCN(C(=O)c2cnc3ccc(F)cc3c2N2CCC3(CC2)OCCO3)CC1` [Example 191, (4-(cyclopropanecarbonyl)piperidin-1-yl)(6-fluoro-4-(1,4-dioxa-8-azaspiro[4.5]decan-8-yl)quinolin-3-yl)methanone], the IC50 in assay [1] was 500 to 1000 nM; in assay [2], under 500 nM.
Take `CCN(CC)C(=O)N1CCN(C(=O)c2cnc3ccc(F)cc3c2N2CCC3(CC2)OCCO3)CC1` [Example 149, N,N-diethyl-4-(6-fluoro-4-(1,4-dioxa-8-azaspiro[4.5]decan-8-yl)quinoline-3-carbonyl)piperazine-1-carboxamide]: the values for the IC50 in assay [1] and in assay [2] were 1000 to 10000 nM and under 500 nM, respectively.
On the same counts, the results for `CS(=O)(=O)N1CCN(C(=O)c2cnc3ccc(F)cc3c2N2CCC3(CC2)OCCO3)CC1` [Example 52, (6-fluoro-4-(1,4-dioxa-8-azaspiro[4.5]decan-8-yl)quinolin-3-yl)(4-(methylsulfonyl)piperazin-1-yl)methanone] are 1000 to 10000 nM and under 500 nM.
On the same counts, the results for `COc1c(F)cc2c(N3CCC(C)(C#N)CC3)c(C(=O)N3CCN(C(=O)C4CC4)CC3)cnc2c1F` [Example 127, 1-(3-(4-(cyclopropanecarbonyl)piperazine-1-carbonyl)-6,8-difluoro-7-methoxyquinolin-4-yl)-4-methylpiperidine-4-carbonitrile] are 1000 to 10000 nM and under 500 nM.
On the same counts, the results for `CC1(C#N)CCN(c2c(C(=O)N3CCN(C(=O)N4CCCC4)CC3)cnc3ccc(F)cc23)CC1` [Example 155, 1-(6-fluoro-3-(4-(pyrrolidine-1-carbonyl)piperazine-1-carbonyl)quinolin-4-yl)-4-methylpiperidine-4-carbonitrile] are over 10000 nM and 1000 to 10000 nM.
Turning to `CCN(CC)C(=O)N1CCN(C(=O)c2cnc3cc(F)c(F)cc3c2N2CCC3(CC2)OCCO3)CC1` [Example 169, 4-(6,7-difluoro-4-(1,4-dioxa-8-azasprio[4.5]decan-8-yl)quinoline-3-carbonyl)-N,N-diethylpiperazine-1-carboxamide], the half-inhibitory concentration (IC50) in assay [1] was 1000 to 10000 nM; in assay [2] it was under 500 nM.
On the same counts, the results for `COc1ccc2ncc(C(=O)N3CCN(C(=O)C4CC4)CC3)c(N3CCC4(CCCO4)CC3)c2c1` [Example 24, (4-(cyclopropanecarbonyl)piperazin-1-yl)(6-methoxy-4-(1-oxa-8-azaspiro[4.5]decan-8-yl)quinolin-3-yl)methanone] are over 10000 nM and under 500 nM.
As to `CCC(=O)N1CCN(C(=O)c2cnc3cc(OC)ccc3c2N2CCC(C)(C#N)CC2)CC1` [Example 102, 1-(7-methoxy-3-(4-propionylpiperazine-1-carbonyl)quinolin-4-yl)-4-methylpiperidine-4-carbonitrile], the IC50 is 1000 to 10000 nM in assay [1] and under 500 nM in assay [2].
Consider `C[C@H]1CN(C(=O)c2cnc3ccc(F)cc3c2N2CCC(C)(C#N)CC2)CCN1C(=O)C1CC1` [Example 227, (S)-1-(3-(4-(cyclopropanecarbonyl)-3-methylpiperazine-1-carbonyl)-6-fluoroquinolin-4-yl)-4-methylpiperidine-4-carbonitrile], for which the IC50 in assay [1] was 1000 to 10000 nM; in assay [2], under 500 nM.
On the same counts, the results for `CCNC(=O)N1CCN(C(=O)c2cnc3c(F)c(OC)c(F)cc3c2N2CCC3(CC2)OCCO3)CC1` [Example 143, 4-(6,8-difluoro-7-methoxy-4-(1,4-dioxa-8-azaspiro[4.5]decan-8-yl)quinoline-3-carbonyl)-N-ethylpiperazine-1-carboxamide] are 1000 to 10000 nM and under 500 nM.
On the same counts, the results for `CC1(C#N)CCN(c2c(C(=O)N3CCN(S(C)(=O)=O)CC3)cnc3c(F)c(F)c(F)cc23)CC1` [Example 138, 4-methyl-1-(6,7,8-trifluoro-3-(4-(methylsulfonyl)piperazine-1-carbonyl)quinolin-4-yl)piperidine-4-carbonitrile] are 1000 to 10000 nM and under 500 nM.
On the same counts, the results for `CCNC(=O)N1CCN(C(=O)c2cnc3cc(F)c(F)cc3c2N2CCC(C)(C#N)CC2)CC1` [Example 146, 4-(4-(4-cyano-4-methylpiperidin-1-yl)-6,7-difluoroquinoline-3-carbonyl)-N-ethylpiperazine-1-carboxamide] are 1000 to 10000 nM and 500 to 1000 nM.
As for `COc1cc2ncc(C(=O)N3CCN(C(=O)C(C)C)CC3)c(N3CCC(C)(C#N)CC3)c2cc1OC` [Example 111, 1-(3-(4-isobutyrylpiperazine-1-carbonyl)-6,7-dimethoxyquinolin-4-yl)-4-methylpiperidine-4-carbonitrile], the IC50 was 1000 to 10000 nM in assay [1] and under 500 nM in assay [2].
As for `CC(C)(C#N)c1ccc(-c2c(C(=O)N3CCC(S(C)(=O)=O)CC3)cnc3ccc(F)cc23)cc1` [Example 259, 2-(4-(6-fluoro-3-(4-(methylsulfonyl)piperidine-1-carbonyl)quinolin-4-yl)phenyl)-2-methylpropanenitrile], the IC50 in assay [1] and in assay [2] was under 500 nM throughout.
As for `CN(C)S(=O)(=O)N1CCN(C(=O)c2cnc3cc(F)c(F)cc3c2N2CCC3(CC2)OCCO3)CC1` [Example 172, 4-(6,7-difluoro-4-(1,4-dioxa-8-azaspiro[4.5]decan-8-yl)quinoline-3-carbonyl)-N,N-dimethylpiperazine-1-sulfonamide], the values for the IC50 in assay [1] and in assay [2] were 500 to 1000 nM and under 500 nM, respectively.
Regarding `O=C(c1cnc2ccc(F)cc2c1N1CCC2(CC1)OCCO2)N1CCCN(C(=O)C2CC2)CC1` [Example 69, (4-(cyclopropanecarbonyl)-1,4-diazepan-1-yl)(6-fluoro-4-(1,4-dioxa-8-azaspiro[4.5]decan-8-yl)quinolin-3-yl)methanone], the IC50 is over 10000 nM in assay [1] and under 500 nM in assay [2].
On to `CN(C)C(=O)N1CCN(C(=O)c2cnc3cc(F)c(F)cc3c2N2CCC(C)(C#N)CC2)CC1` [Example 184, 4-(4-(4-cyano-4-methylpiperidin-1-yl)-6,7-difluoroquinoline-3-carbonyl)-N,N-dimethylpiperazine-1-carboxamide], for which the IC50 is 1000 to 10000 nM in assay [1] and under 500 nM in assay [2].
Regarding `N#CC1(c2ccc(-c3c(C(=O)N4CC(O)C4)cnc4ccc(F)cc34)cc2)CC1` [Cpd. 334, 1-(4-(6-fluoro-3-(3-hydroxyazetidine-1-carbonyl)quinolin-4-yl)phenyl)cyclopropane-1-carbonitrile], the IC50 is over 10000 nM in assay [1] and 1000 to 10000 nM in assay [2].
On the same counts, the results for `CN(C)S(=O)(=O)N1CCN(C(=O)c2cnc3ccc(Cl)cc3c2-c2ccc(C3(C#N)CC3)cc2)CC1` [Example 298, 4-(6-chloro-4-(4-(1-cyanocyclopropyl)phenyl)quinoline-3-carbonyl)-N,N-dimethylpiperazine-1-sulfonamide] are under 500 nM and under 500 nM.
For `COc1ccc2ncc(C(=O)N3C[C@@H](C)O[C@@H](C)C3)c(N3CCC4(CC3)OCCO4)c2c1` [Example 33, ((2S*,6R*)-2,6-dimethylmorpholino)(6-methoxy-4-(1,4-dioxa-8-azaspiro[4.5]decan-8-yl)quinolin-3-yl)methanone], the IC50 in assay [1] is over 10000 nM; in assay [2] it was 1000 to 10000 nM.
For the compound `CS(=O)(=O)N1CCN(C(=O)c2cnc3ccc(F)cc3c2N2CCC3(CCOC3=O)CC2)CC1` [Example 249, 8-(6-fluoro-3-(4-(methylsulfonyl)piperazine-1-carbonyl)quinolin-4-yl)-2-oxa-8-azaspiro[4.5]decan-1-one], the results for the IC50 in assay [1] and in assay [2] were 1000 to 10000 nM and under 500 nM, respectively.
